Experimental data published in ChEMBL document CHEMBL1126109 (J Med Chem, 1992).

Legend:
Type in all cases: protein-complex assay
[1] = molecular target: Glutamate NMDA receptor; assay: Compound was evaluated for the inhibition of [3H]MK-801 binding at N-methyl-D-aspartate glutamate receptor
[2] = molecular target: Glutamate NMDA receptor; assay: Compound was evaluated for the inhibition of [3H]-CGS-19,755 binding at N-methyl-D-aspartate glutamate receptor
[3] = molecular target: Glutamate NMDA receptor; assay: Compound was evaluated for the inhibition of [3H]norepinephrine binding at N-methyl-D-aspartate glutamate receptor

EC50 [1] [µM] | IC50 [2] [µM] | EC50 [3] [µM] | SMILES
0.18 | 0.163 | 16.5 | N[C@]1(C(=O)O)C[C@@H](C(=O)O)C1
0.07 | 0.098 | 2.03 | NC(C(=O)O)c1nnn[nH]1 (racemic)
 | 1.64 |  | N[C@@H](CC(=O)O)C(=O)O [ASPARTIC ACID]
6.86 | 4.15 | 75 | CN[C@H](CC(=O)O)C(=O)O [N-METHYL-D-ASPARTIC ACID (NMDA)]
